According to PubChem BioAssay AID1845211 (Molecular Pharmacology Branch, DTP, NCI, 2023):

Test system: NCI-H322M multicellular tumor spheroids, viability (% test/control)
Assay: Anticancer human tumor NCI-H322M cell line growth inhibition;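 as to viability, T/C: spheroids exposed to compound for seven days before readout; 100% = DMSO vehicle control wells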
Settings: for IC50: curve of first compound; for viability, T/C: stronger effect = lower value
How it was run: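 Complex spheroids of malignant cells with endothelial cells and mesenchymal stem cells; agents alone or combined, from near clinical Cmax (or 10 microM if unknown) down in half-log steps, 0.25% DMSO final.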

[1] = second compound 30 pM, first compound 0.0316 µM
[2] = second compound 30 pM, first compound 0.1 µM
[3] = second compound 30 pM, first compound 0.316 µM
[4] = second compound 30 pM, first compound 1 µM
[5] = second compound 30 pM, first compound 3.16 µM
[6] = second compound 30 pM, first compound 10 µM
[7] = second compound 94.9 pM, first compound 0.0316 µM
[8] = second compound 94.9 pM, first compound 0.1 µM
[9] = second compound 94.9 pM, first compound 0.316 µM
[10] = second compound 94.9 pM, first compound 1 µM
[11] = second compound 94.9 pM, first compound 3.16 µM
[12] = second compound 94.9 pM, first compound 10 µM
[13] = second compound 0.0003 µM, first compound 0.0316 µM
[14] = second compound 0.0003 µM, first compound 0.1 µM
[15] = second compound 0.0003 µM, first compound 0.316 µM
[16] = second compound 0.0003 µM, first compound 1 µM
[17] = second compound 0.0003 µM, first compound 3.16 µM
[18] = second compound 0.0003 µM, first compound 10 µM
[19] = second compound 0.000949 µM, first compound 0.0316 µM
[20] = second compound 0.000949 µM, first compound 0.1 µM
[21] = second compound 0.000949 µM, first compound 0.316 µM
[22] = second compound 0.000949 µM, first compound 1 µM
[23] = second compound 0.000949 µM, first compound 3.16 µM
[24] = second compound 0.000949 µM, first compound 10 µM
[25] = second compound 0.003 µM, first compound 0.0316 µM
[26] = second compound 0.003 µM, first compound 0.1 µM
[27] = second compound 0.003 µM, first compound 0.316 µM
[28] = second compound 0.003 µM, first compound 1 µM
[29] = second compound 0.003 µM, first compound 3.16 µM
[30] = second compound 0.003 µM, first compound 10 µM

Cc1cc(C)c(CNC(=O)c2cc(-c3ccc(CN4CCOCC4)cc3)cc3c2cnn3C2CCCC2)c(=O)[nH]1 + COc1cc2c(cc1O)CCNC21CSC2c3c(OC(C)=O)c(C)c4c(c3C(COC1=O)N1C(O)C3Cc5cc(C)c(OC)c(O)c5C(C21)N3C)OCO4
IC50 (second compound 30 pM): > 10 µM
IC50 (second compound 94.9 pM): > 10 µM
IC50 (second compound 0.0003 µM): > 10 µM
IC50 (second compound 0.000949 µM): > 10 µM
IC50 (second compound 0.003 µM): < 0.0316 µM
viability, T/C [1]: 84.6%
viability, T/C [2]: 97.8%
viability, T/C [3]: 87.1%
viability, T/C [4]: 97.9%
viability, T/C [5]: 99.6%
viability, T/C [6]: 114%
viability, T/C [7]: 92.8%
viability, T/C [8]: 90.9%
viability, T/C [9]: 92%
viability, T/C [10]: 84.4%
viability, T/C [11]: 89.5%
viability, T/C [12]: 130%
viability, T/C [13]: 96.6%
viability, T/C [14]: 98.1%
viability, T/C [15]: 98.2%
viability, T/C [16]: 95.3%
viability, T/C [17]: 108%
viability, T/C [18]: 126%
viability, T/C [19]: 92.4%
viability, T/C [20]: 92.2%
viability, T/C [21]: 87.9%
viability, T/C [22]: 96.2%
viability, T/C [23]: 82%
viability, T/C [24]: 97.8%
viability, T/C [25]: 17.8%
viability, T/C [26]: 8.17%
viability, T/C [27]: 12.3%
viability, T/C [28]: 6.05%
viability, T/C [29]: 2.7%
viability, T/C [30]: 3.51%

Cc1sc2c(c1C)C(c1ccc(Cl)cc1)=NC(CC(=O)Nc1ccc(O)cc1)c1nnc(C)n1-2 (stereo not given) + COc1cc2c(cc1O)CCNC21CSC2c3c(OC(C)=O)c(C)c4c(c3C(COC1=O)N1C(O)C3Cc5cc(C)c(OC)c(O)c5C(C21)N3C)OCO4
IC50 (second compound 30 pM): > 3 µM
IC50 (second compound 94.9 pM): > 3 µM
IC50 (second compound 0.0003 µM): 1.59 µM
IC50 (second compound 0.000949 µM): 0.333 µM
IC50 (second compound 0.003 µM): < 0.00949 µM
viability, T/C (second compound 30 pM, first compound 0.00949 µM): 113%
viability, T/C (second compound 30 pM, first compound 0.03 µM): 118%
viability, T/C (second compound 30 pM, first compound 0.0949 µM): 136%
viability, T/C (second compound 30 pM, first compound 0.3 µM): 112%
viability, T/C (second compound 30 pM, first compound 0.949 µM): 74%
viability, T/C (second compound 30 pM, first compound 3 µM): 60.1%
viability, T/C (second compound 94.9 pM, first compound 0.00949 µM): 104%
viability, T/C (second compound 94.9 pM, first compound 0.03 µM): 112%
viability, T/C (second compound 94.9 pM, first compound 0.0949 µM): 123%
viability, T/C (second compound 94.9 pM, first compound 0.3 µM): 110%
viability, T/C (second compound 94.9 pM, first compound 0.949 µM): 72.5%
viability, T/C (second compound 94.9 pM, first compound 3 µM): 53.6%
viability, T/C (second compound 0.0003 µM, first compound 0.00949 µM): 117%
viability, T/C (second compound 0.0003 µM, first compound 0.03 µM): 133%
viability, T/C (second compound 0.0003 µM, first compound 0.0949 µM): 133%
viability, T/C (second compound 0.0003 µM, first compound 0.3 µM): 119%
viability, T/C (second compound 0.0003 µM, first compound 0.949 µM): 63.9%
viability, T/C (second compound 0.0003 µM, first compound 3 µM): 33.1%
viability, T/C (second compound 0.000949 µM, first compound 0.00949 µM): 127%
viability, T/C (second compound 0.000949 µM, first compound 0.03 µM): 87.6%
viability, T/C (second compound 0.000949 µM, first compound 0.0949 µM): 80.7%
viability, T/C (second compound 0.000949 µM, first compound 0.3 µM): 60.2%
viability, T/C (second compound 0.000949 µM, first compound 0.949 µM): 19.5%
viability, T/C (second compound 0.000949 µM, first compound 3 µM): 11.9%
viability, T/C (second compound 0.003 µM, first compound 0.00949 µM): 9.9%
viability, T/C (second compound 0.003 µM, first compound 0.03 µM): 6.99%
viability, T/C (second compound 0.003 µM, first compound 0.0949 µM): 6.13%
viability, T/C (second compound 0.003 µM, first compound 0.3 µM): 2.83%
viability, T/C (second compound 0.003 µM, first compound 0.949 µM): 1.47%
viability, T/C (second compound 0.003 µM, first compound 3 µM): 1.17%

[2H]c1nc(C)nc([2H])c1-c1cc(NC[C@@H](C)c2cccc3c(C(=O)NC)ccnc23)ncn1 + COc1cc2c(cc1O)CCNC21CSC2c3c(OC(C)=O)c(C)c4c(c3C(COC1=O)N1C(O)C3Cc5cc(C)c(OC)c(O)c5C(C21)N3C)OCO4
IC50 (second compound 30 pM): > 10 µM
IC50 (second compound 94.9 pM): > 10 µM
IC50 (second compound 0.0003 µM): > 10 µM
IC50 (second compound 0.000949 µM): > 10 µM
IC50 (second compound 0.003 µM): < 0.0316 µM
viability, T/C [1]: 80.4%
viability, T/C [2]: 89.1%
viability, T/C [3]: 85.6%
viability, T/C [4]: 84.7%
viability, T/C [5]: 75.2%
viability, T/C [6]: 90.2%
viability, T/C [7]: 81.3%
viability, T/C [8]: 76.7%
viability, T/C [9]: 92.1%
viability, T/C [10]: 90.1%
viability, T/C [11]: 85.7%
viability, T/C [12]: 94.9%
viability, T/C [13]: 89%
viability, T/C [14]: 78.9%
viability, T/C [15]: 90.5%
viability, T/C [16]: 84.2%
viability, T/C [17]: 94.9%
viability, T/C [18]: 93.3%
viability, T/C [19]: 81%
viability, T/C [20]: 79.3%
viability, T/C [21]: 84%
viability, T/C [22]: 82%
viability, T/C [23]: 76%
viability, T/C [24]: 75.8%
viability, T/C [25]: 15.8%
viability, T/C [26]: 12.2%
viability, T/C [27]: 10.5%
viability, T/C [28]: 10.9%
viability, T/C [29]: 8.62%
viability, T/C [30]: 5.55%
